These results are taken from patent US6291657A (priority 1993, dated 2001).

In series [1] the test system is N-linked oligosaccharide processing of gp120 in CHO cells (α-glucosidases I and II). Nature of the series: Endo H sensitivity of gp120 expressed in CHO cells (N-linked oligosaccharide processing). Type of series: cell-based, Chinese hamster. The protocol: The arrows indicate the molecular weight of the untreated gp120 (120 kDa) and post endo H digestion (60 kDa). An additional band of low molecular weight (approximately 60 kDa) was present in some lanes and is a non-specific protein precipitated by the solid phase matrix.
The culture of CHO cells expressing soluble recombinant gp120 (from Dr. P. Stevens, MRC AIDS Directed Programme Reagent Project) and the radiolabelling of these cells was carried out by conventional procedure as described by Karlsson et al., J. Biol. Chem. 268, 570-576 (1993). Briefly, CHO cells were harvested mechanically, washed three times with phosphate buffered saline, 0.1M pH 7.2 (PBS) and resuspended in methionine- and cysteine-free RPMI-1640 medium (ICN-Flow Laboratories, High Wycombe, Bucks, U.K.) supplemented with 1% dialysed FCS. Cells (10^7 /ml) were preincubated in the presence or absence of NB-DNJ or NB-DGJ for 1 hr prior to the addition of 100 μCi/ml Tran^35 S-label (ICN-Flow) for 4 hr. The supernatants were collected and concentrated tenfold using a 30 kDa cut-off membrane (Amicon, Danvers, Mass., U.S.A.).
Immunoprecipitations were performed by conventional procedure as described by Karlsson supra. Supernatants were incubated with the mAb ABT 1001 monoclonal antibody (American Biotechnologies Inc., Cambridge, Mass., U.S.A.) at 0.5 μg/100 μl of supernatant for 30 min. at room temperature followed by sheep anti-mouse IgG1-coated magnetic beads (Dynal Ltd., Wirral, Merseyside, U.K., 1.2×10^7 beads per sample) for 1 hr. at 4° C. The beads were washed three times with 2% TRITON® X-100 in PBS and three times with PBS. Gp120 was eluted in […] reducing SDS-PAGE sample buffer with heating (95° C., 5 min.). Each sample was divided into two equal aliquots and 25 μl of dH2 O added to give a final volume of 50 μl. To one half of each sample 2 μl of endoglycosidase H (endo H, 1 unit/ml, Boehringer Mannheim Ltd., Lewes, Sussex, U.K.) was added and the other half left untreated. […]

Another series relates to HL-60 cells. Nature of the series: Cytotoxicity in the dose range tested. Type of series: cell-based, human.
For series [2], the system named is cholera toxin binding sites on H9 cells. It counts as cell-based, human.
For series [3], the system named is glycolipid biosynthesis in HL-60 cells. The series is described as follows: Inhibition of glycolipid biosynthesis in HL-60 cells, [14C]-palmitic acid labelling, 1D-TLC.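 On all read-outs here: cells cultured 24 h with or without test compound, total cellular lipids resolved by one-dimensional TLC and detected by autoradiography, inhibition shown as missing Glc-Cer and gangliosides versus untreated cells.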 To be noted: for minimal effective concentration: Homo sapiens. It counts as cell-based, human.
Series [4] deals with oligosaccharide biosynthesis in BW5147 cells. The series is described as follows: Glycopeptide analysis by Con A-SEPHAROSE chromatography, BW5147 cells. Type of series: cell-based, murine.
Series [5] has as its system Glc-Cer accumulation in WEHI-3B murine macrophage cells. The series is described as follows: In vitro Gaucher's disease model: CBE induced glycolipid storage in WEHI-3B cells, 1D-TLC. It counts as cell-based. To be noted: for prevention of glycolipid storage in in vitro Gaucher's disease model (in words): CBE. Here is the method: In this model, the murine macrophage cell line WEHI-3B was cultured in the presence of an irreversible glucocerebrosidase inhibitor, conduritol β epoxide (CBE), to mimic the inherited disorder found in Gaucher's disease. WEHI-3B cells are well-known, widely distributed and readily available murine macrophage cells. They are described in Cancer Res. 37, 546-550 (1977), and are readily available from the American Type Culture Collection, Rockville, Md, under accession number ATCC TIB 68. The compounds of the invention prevent lysosomal glycolipid storage which is useful for the management of Gaucher's disease and other glycolipid storage disorders as illustrated hereinafter in Table 3. Gaucher's disease is an autosomal recessive disorder characterized by an impaired ability to degrade glucocerebroside (glucosyl ceramide, Glc-Cer) due to mutations in the gene encoding β-glucocerebrosidase (β-D-glucosyl-N-acylsphingosine glucohydrolase, EC 3.2.1.45). This defect results in the lysosomal accumulation of Glc-Cer in cells of the macrophage-monocyte system [Barranger and Ginns, in The Metabolic Basis of Inherited Diseases, ed. Scriver et al., pp. 1677-1698, McGraw-Hill, New York, (1989); Beutler, Science 256, 794-799 (1992)]. By slowing the rate of glycolipid synthesis, the impaired catabolism of Glc-Cer can be offset, thereby leading to the maintenance of a balanced level of Glc-Cer.
FIGS. 5 and 6 show the analysis of NB-DNJ and NB-DGJ in an in vitro Gaucher's disease model.
The in vitro Gaucher's disease model was prepared as follows: WEHI-3B cells (American Type Culture Collection, Rockville, Md., U.S.A.) were maintained in logarithmic phase growth for 14 days in RPMI-1640 medium, 10% FCS, in the presence or absence of 50 μM conduritol β epoxide (CBE, Toronto Research Chemicals, Downsview, Canada) with or without NB-DNJ or NB-DGJ. Cells were passaged every 3 days and compound concentrations maintained throughout. Equal cell numbers (5×10^6) were harvested, extracted in 1 ml chloroform: methanol (2:1 v/v) overnight at 4° C., the extracts centrifuged, the chloroform:methanol extract retained and the pellet re-extracted as above for 2 hr. at room temperature. Pooled extracts were dried under nitrogen, re-dissolved in 10 μl chloroform:methanol (2:1 v/v) and separated by 1D-TLC in chloroform:methanol:water […]. Plates were air dried and visualized using α-naphthol (1% w/v in methanol) followed by 50% (v/v) sulphuric acid.

In the next series the test system is WEHI-3B cell lysosomes. The series is described as follows: Transmission electron microscopy of lysosomes of CBE treated WEHI-3B cells. Type of series: cell-based, murine. To be noted: transmission electron microscopy (FIG. 6).
Series [6] has as its system oligosaccharide biosynthesis in HL-60 cells. The series is described as follows: Glycopeptide analysis by Con A-SEPHAROSE chromatography, HL-60 cells. It counts as cell-based, human.

Structures are written as SMILES. Entries after “also recorded” stand apart in the source; their conditions may differ. Where two headings read alike, the source gives them in different places.

As for `CCCCN1C[C@H](O)[C@@H](O)[C@@H](O)[C@H]1CO` [NB-DGJ, N-butyl deoxygalactonojirimycin], the “inhibition of α-glucosidases I and II suggested by gp120 endo H sensitivity” value in series [1] (0.5 mM and 5 mM) is “not acting as an inhibitor of α-glucosidases I and II”. Besides, in series [1] (0.5 mM or 5 mM (FIG. 7)), the “endo H sensitivity of gp120 N-linked glycans” value is “partially sensitive to endo H and was indistinguishable from the untreated gp120 molecules”. In addition, in the series with HL-60 cells, the cytotoxicity entry is listed as “non-cytotoxic”. In series [2], the cholera toxin binding result is given as “reduction of the binding of cholera toxin”. Also, the “reduction in cholera toxin binding” value in series [2] (h9 cells, 4320 min) is reported as “approximately 70%”. In addition, the “lipid species whose biosynthesis was inhibited” value in series [3] (HL-60, 500 μM, 1D-TLC) is “inhibited the biosynthesis of Glc-Cer, gangliosides and an unknown lipid species”. For the same compound, in series [3] (HL-60, 500 μM, 1D-TLC (FIG. 1)), the “inhibition of glycolipid biosynthesis” value is “specifically inhibited glycolipid biosynthesis”. Further, the “effect of N-alkyl chain length on inhibition of glycolipid biosynthesis (loss of detectable Glc-Cer)” value in series [3] (HL-60, 0.5 mM, 1D-TLC (FIG. 4), listed as N-butyl DGJ) was “completely prevented glycolipid biosynthesis; also recorded: completely inhibited glycolipid biosynthesis”. The minimal effective concentration in series [3] (HL-60, relatively low concentration, read-out: concentration inhibitory of glycolipid biosynthesis) was about 50 µM; in series [3] (HL-60, 1D-TLC (FIG. 3), partial inhibition, read-out: concentrations as low as which partial inhibition occurred), 0.5 to 5 µM; in series [5] (Mus musculus, WEHI3B, 336 h, 50 μM CBE, 14 days (FIG. 5), read-out: dose range preventing CBE induced glycolipid storage), 5 to 50 µM. In addition, the results for the “Total 3H-mannose recovered” value in series [4] and in series [6] (HL-60) were 706873 cpm and 844322 cpm, respectively. In addition, the Bi-antennary in series [4] (percentage of radiolabelled glycopeptides eluted with 10 mM methylglucoside) came to 7.2%; in series [6] (HL-60, percentage of radiolabelled glycopeptides eluted with 10 mM methylglucoside), 17.7%. Moreover, the “Oligo-mannose & hybrid” value amounted to 52.4% in series [4] (percentage of radiolabelled glycopeptides eluted with 500 mM methylmannoside) and 54.2% in series [6] (HL-60, percentage of radiolabelled glycopeptides eluted with 500 mM methylmannoside). The “Tetra- & Tri-antennary” value stood at 40.4% in series [4] (percentage of radiolabelled glycopeptides non-bound) and 28.1% in series [6] (HL-60, percentage of radiolabelled glycopeptides non-bound). Moreover, the “prevention of glycolipid storage in in vitro Gaucher's disease model (in words)” value is on record as “as effective as NB-DNJ” in series [5] and “offset glucoceramide accumulation” in series [5] (listed as N-butyl DGJ). The “glycolipid accumulation in lysosomes” value in the series on WEHI-3B cell lysosomes is recorded as “prevented the glycolipid accumulation”. The “glycopeptide profile by Con A-SEPHAROSE chromatography” value in series [6] (HL-60 and BW5147) is reported as “unchanged glycopeptide profile”.
